Laboratory results from the Kinase Knowledgebase extract (Sharma et al. 2016).

Biological target: PIK3CG (human) (UniProt P48736)
Assay: Inhibition of PIK3CG Kinase Activity

Sequence of PIK3CG (human) (P48736 whole entry, looked up): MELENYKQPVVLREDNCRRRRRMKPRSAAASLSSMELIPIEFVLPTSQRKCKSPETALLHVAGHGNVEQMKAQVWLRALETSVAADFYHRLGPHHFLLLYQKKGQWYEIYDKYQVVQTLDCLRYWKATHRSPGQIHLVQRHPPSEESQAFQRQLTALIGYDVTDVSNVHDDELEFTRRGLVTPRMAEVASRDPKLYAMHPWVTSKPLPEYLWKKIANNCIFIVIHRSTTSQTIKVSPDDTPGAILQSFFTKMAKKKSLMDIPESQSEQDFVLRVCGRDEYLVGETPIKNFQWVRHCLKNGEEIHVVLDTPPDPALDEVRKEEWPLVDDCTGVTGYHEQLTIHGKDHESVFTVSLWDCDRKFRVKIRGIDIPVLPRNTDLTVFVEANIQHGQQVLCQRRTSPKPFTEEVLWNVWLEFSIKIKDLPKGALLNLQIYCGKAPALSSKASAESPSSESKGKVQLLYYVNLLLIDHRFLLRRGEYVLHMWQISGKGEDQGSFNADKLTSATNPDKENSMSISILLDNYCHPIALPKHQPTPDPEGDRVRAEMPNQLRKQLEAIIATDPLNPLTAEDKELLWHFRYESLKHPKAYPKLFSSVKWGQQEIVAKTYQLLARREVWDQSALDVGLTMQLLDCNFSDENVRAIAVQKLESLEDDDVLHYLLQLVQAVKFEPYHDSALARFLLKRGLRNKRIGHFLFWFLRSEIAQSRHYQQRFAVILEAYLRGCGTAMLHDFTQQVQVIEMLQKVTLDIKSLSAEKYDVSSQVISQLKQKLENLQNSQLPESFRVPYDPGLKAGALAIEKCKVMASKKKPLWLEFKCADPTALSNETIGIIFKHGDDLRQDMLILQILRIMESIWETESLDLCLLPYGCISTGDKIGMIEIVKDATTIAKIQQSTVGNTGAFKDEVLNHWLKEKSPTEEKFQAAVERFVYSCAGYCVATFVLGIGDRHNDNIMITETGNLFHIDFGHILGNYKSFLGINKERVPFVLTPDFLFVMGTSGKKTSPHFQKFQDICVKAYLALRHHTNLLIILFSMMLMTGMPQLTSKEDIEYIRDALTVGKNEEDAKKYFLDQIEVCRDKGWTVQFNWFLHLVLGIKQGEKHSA

Structure (SMILES) | IC50 [µM]
Cn1nc(-c2ccc(OCCn3ccnc3)c(F)c2)c2cnc(N)nc21 | < 2
Cn1nc(-c2cc(C(F)(F)F)cc(Cl)c2O)c2cnc(N)nc21 | < 2
COc1ncc(-c2nn(C)c3nc(N)ncc23)cn1 | < 2
Cn1nc(-c2cc(F)c(O)c(Cl)c2)c2cnc(N)nc21 | < 2
CC(=O)c1ccc(-c2nn(C)c3nc(N)ncc23)s1 | < 2

Further lines, results first:

IC50 [µM] | Structure (SMILES)
< 2 | COc1ccc(Br)cc1-c1nn(C)c2nc(N)ncc12
< 2 | COc1ccc(NCCCN(C)C)cc1-c1nn(C)c2nc(N)ncc12
< 2 | Cn1nc(-c2ccc(O)cc2)c2cnc(N)nc21
